# Patent US20210041447A1, “AZACARBOLINE COMPOUNDS FOR THE DETECTION OF TAU AGGREGATES” (AC IMMUNE SA, priority 2018, published 2021)
# Where two headings read alike, the source gives them in different places.
# How the values were obtained:
# [1] = molecular target: Tau (Homo sapiens, UniProt P10636); assay: Tau binding in AD brain homogenate, competition with 18F-labeled Tau binder; design: High affinity to Tau: key: −: poor; ∘: moderate; +: good; ++: very good; +++: excellent; conditions: for High affinity to Tau: AD brain homogenate, non-radioactive fluorine-19 derivatives; for IC50: human AD brain homogenate, fluorine-19 derivatives
# Experimental: (§1) 20 μg of human Alzheimer disease brain homogenate was incubated with a dilution series of each test compound (1000 to 0.06 nM) in the presence of 800 Bq of ^18F-labeled Tau binder. The samples were shaken at 110 rpm for 45 min at 37° C. Samples were then filtered through GF/B 96 well filter plates and washed twice with 300 μL assay buffer (PBS containing 0.1% BSA and 2% DMSO). Thereafter, filter plates were sealed and a Fuji Film Imaging Plate (BAS-SR2025) was placed on top. The imaging plate was analyzed after overnight exposition using a Fuji Film BAS-5000. Non-specific signal was determined with samples containing ^18F-labeled Tau-reference binder in the presence of assay buffer without brain substrate and competitor. Specific binding was calculated by subtracting the non-specific signal from the measured samples signal. The unblocked ^18F-labeled Tau-binder signal was defined as total binding. IC50 values were calculated by Prism V6 (GraphPad) setting total binding to 100%.
# [2] = molecular target: amyloid-beta (Homo sapiens, UniProt P05067); assay: Binding affinity to amyloid-beta in AD brain homogenate, competition with 18F-labeled beta-amyloid binder; design: Low affinity to amyloid-beta: key: −: poor; ∘: moderate; +: good; ++: very good; +++: excellent
# Experimental: as §1, with “beta-amyloid” for “Tau”, “96-well” for “96 well”, “beta-amyloid” for “Tau-reference”, “beta-amyloid binder” for “Tau-binder”
# [3] = molecular target: T1, MAO A (Homo sapiens, UniProt P21397); assay: Binding affinity to MAO A in human HC brain homogenate, [18F]fluoroethyl harmine competition; conditions: human healthy control brain homogenate; for IC50: 18F-FEH competition; as to Low affinity to MAO A (HC homogenate): key: −: poor; ∘: moderate; +: good; ++: very good; +++: excellent
# T1 construct: from tissue; host or cells: human healthy control brain homogenate
# T1 sequence (P21397 1-527): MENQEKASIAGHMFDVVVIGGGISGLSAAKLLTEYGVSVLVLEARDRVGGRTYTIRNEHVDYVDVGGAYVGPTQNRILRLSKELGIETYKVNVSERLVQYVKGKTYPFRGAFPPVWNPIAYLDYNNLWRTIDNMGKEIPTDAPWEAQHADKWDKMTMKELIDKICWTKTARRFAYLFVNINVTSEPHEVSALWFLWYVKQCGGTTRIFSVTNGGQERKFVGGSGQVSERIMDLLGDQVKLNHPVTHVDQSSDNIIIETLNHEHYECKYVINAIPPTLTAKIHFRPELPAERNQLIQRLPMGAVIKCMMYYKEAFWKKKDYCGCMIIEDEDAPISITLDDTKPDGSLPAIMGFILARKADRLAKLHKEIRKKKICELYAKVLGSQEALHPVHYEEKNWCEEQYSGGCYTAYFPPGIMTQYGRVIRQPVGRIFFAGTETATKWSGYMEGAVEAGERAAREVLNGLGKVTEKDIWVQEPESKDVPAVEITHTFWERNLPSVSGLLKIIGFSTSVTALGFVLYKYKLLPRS
# Experimental: as §1, with “of” for “of human Alzheimer disease”, “homogenate (without AD pathology)” for “homogenate”, “18F-labeled MAO-A binder ([^18F]fluoroethyl harmine, FEH).” for “^18F-labeled Tau binder.”, “96-well” for “96 well”, “FEH” for “Tau-reference binder”, “FEH” for “Tau-binder”
# [4] = molecular target: T2, MAO A (Mus musculus, UniProt Q64133); assay: Binding affinity to MAO A in mouse brain homogenate, [18F]fluoroethyl harmine competition; conditions: for IC50: 18F-FEH competition; as to Low affinity to MAO A (mouse homogenate): key: −: poor; ∘: moderate; +: good; ++: very good; +++: excellent
# T2 construct: from tissue; host or cells: mouse brain homogenate
# T2 sequence (Q64133 1-526): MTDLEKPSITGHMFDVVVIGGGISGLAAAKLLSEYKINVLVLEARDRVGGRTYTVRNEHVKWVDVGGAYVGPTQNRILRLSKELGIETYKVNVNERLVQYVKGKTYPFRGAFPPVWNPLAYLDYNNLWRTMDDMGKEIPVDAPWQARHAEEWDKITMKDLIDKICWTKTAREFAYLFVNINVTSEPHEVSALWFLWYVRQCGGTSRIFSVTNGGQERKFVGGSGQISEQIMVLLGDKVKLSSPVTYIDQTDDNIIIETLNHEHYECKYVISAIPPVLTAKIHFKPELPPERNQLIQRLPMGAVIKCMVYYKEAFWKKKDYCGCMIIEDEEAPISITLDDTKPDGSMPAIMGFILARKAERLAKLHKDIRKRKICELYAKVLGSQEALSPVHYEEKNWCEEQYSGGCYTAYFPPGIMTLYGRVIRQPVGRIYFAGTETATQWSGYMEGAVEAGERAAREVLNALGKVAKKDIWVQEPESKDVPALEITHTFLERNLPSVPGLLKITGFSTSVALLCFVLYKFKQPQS
# Experimental: as §1, with “of” for “of human Alzheimer disease”, “homogenate (without AD pathology)” for “homogenate”, “18F-labeled MAO-A binder ([^18F]fluoroethyl harmine, FEH).” for “^18F-labeled Tau binder.”, “96-well” for “96 well”, “FEH” for “Tau-reference binder”, “FEH” for “Tau-binder”
# [5] = molecular target: T3, MAO B (Homo sapiens, UniProt P27338); assay: Binding affinity to MAO B in HC brain homogenate, [18F]fluoro deprenyl competition; design: Low affinity to MAO B: key: −: poor; ∘: moderate; +: good; ++: very good; +++: excellent
# T3 construct: from tissue; host or cells: human brain homogenate without AD pathology
# T3 sequence (P27338 1-520): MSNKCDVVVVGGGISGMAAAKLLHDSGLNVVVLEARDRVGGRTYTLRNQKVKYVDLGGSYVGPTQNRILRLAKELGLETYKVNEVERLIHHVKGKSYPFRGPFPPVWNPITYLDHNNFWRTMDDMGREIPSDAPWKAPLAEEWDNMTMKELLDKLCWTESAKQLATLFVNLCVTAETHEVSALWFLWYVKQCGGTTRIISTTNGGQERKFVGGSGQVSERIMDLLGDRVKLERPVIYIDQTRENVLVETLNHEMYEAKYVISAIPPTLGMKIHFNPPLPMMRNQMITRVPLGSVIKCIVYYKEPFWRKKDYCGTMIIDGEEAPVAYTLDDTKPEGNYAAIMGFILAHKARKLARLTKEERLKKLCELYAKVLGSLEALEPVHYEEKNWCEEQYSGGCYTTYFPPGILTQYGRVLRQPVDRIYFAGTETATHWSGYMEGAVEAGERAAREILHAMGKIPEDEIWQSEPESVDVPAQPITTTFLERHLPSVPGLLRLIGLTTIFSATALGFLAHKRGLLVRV
# Experimental: as §1, with “human” for “human Alzheimer disease”, “homogenate (without AD pathology)” for “homogenate”, “MAO-B binder ([^18F]fluoro deprenyl).” for “Tau binder.”, “96-well” for “96 well”, “fluoro deprenyl” for “Tau-reference binder”, “fluoro deprenyl” for “Tau-binder”
# [6] = human AD brain homogenate; read-out: IC50 in AD brain homogenate (amyloid-beta)
# [7] = human HC brain homogenate; 18F-fluoro deprenyl competition; read-out: IC50 in HC brain homogenate (MAO B)
# Sequence of Tau (P10636 623-708 limits assumed): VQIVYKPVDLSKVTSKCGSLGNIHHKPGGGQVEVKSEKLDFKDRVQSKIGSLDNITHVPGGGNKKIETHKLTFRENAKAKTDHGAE
# Sequence of amyloid-beta (P05067 672-711 limits assumed): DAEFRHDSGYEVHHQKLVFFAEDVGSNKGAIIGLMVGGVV
SMILES,High affinity to Tau [1],IC50 [1] [nM],Low affinity to amyloid-beta ([2]; AD brain homogenate),"IC50 [2, 6] [nM]",Low affinity to MAO A (HC homogenate) [3],IC50 [3] [nM],Low affinity to MAO A (mouse homogenate) [4],IC50 [4] [nM],Low affinity to MAO B ([5]; HC brain homogenate),"IC50 [5, 7] [nM]",IC50 ([2]; read-out: IC50 in AD brain homogenate (amyloid-beta); human AD brain homogenate) [nM],IC50 ([5]; read-out: IC50 in HC brain homogenate (MAO B); human HC brain homogenate; 18F-fluoro deprenyl competition) [nM]
Fc1nccc(-c2ccc3c(n2)[nH]c2ccncc23)c1F [Example F-3],+++,7,+++,> 1000,+++,> 1000,+++,830,+++,645,,
Fc1nccc(-c2ccc3c(n2)[nH]c2ccncc23)c1Cl [Example F-4],++,26,+++,> 1000,+++,> 1000,+++,> 1000,+++,> 1000,,
Fc1cc(-c2ccc3c(n2)[nH]c2ccncc23)cc(F)n1 [Example F-5],++,29,+++,> 1000,+++,> 1000,+++,> 1000,+++,> 1000,,
Fc1cc(-c2ccc3c(n2)[nH]c2ccncc23)c(F)cn1 [Example F-6],++,17,+++,> 1000,+++,> 1000,+++,> 1000,+++,> 1000,,
Fc1ccc(-c2ccc3c(n2)[nH]c2ccncc23)c(F)n1 [Example F-7],++,10,+++,> 1000,+++,739,+++,701,++,387,,
Fc1cnc(F)c(-c2ccc3c(n2)[nH]c2ccncc23)c1 [Example F-8],++,9,+++,> 1000,+++,> 1000,+++,> 1000,+++,> 1000,,
N#Cc1ccc(-c2ccc3c(n2)[nH]c2ccncc23)cc1F [Example F-9],++,13,+++,> 1000,++,333,++,181,+++,> 1000,,
N#Cc1cc(-c2ccc3c(n2)[nH]c2ccncc23)ccc1F [Example F-9a],+++,8.7,,,,,++,152,,,,
Nc1cc(-c2ccc3c(n2)[nH]c2ccncc23)ccc1F [Example F-10],+++,,+++,,+,24,+,25,+++,,680,> 1000
